In patent US10683273B2, “Compounds as DNA probes, methods and applications thereof” (JAWAHARLAL NEHRU CENTRE FOR ADVANCED SCIENTIFIC RESEARCH, priority 2015, dated 2020):

Columns and labels:
RNA = assay: Fluorescence response with RNA; type: binding; conditions: QCy-DT 2 μM, RNA 4 μM, Tris-HCl
Description: (§1) All the chemicals, reagents, single-stranded oligos (dA20, dT20, dG20, dC20), self-complementary oligos {d(ATAT)5, (D1)mix, Drew-AT, Calf-Thymus DNA (CT-DNA), (DM1, DM2, DM3, DM4, DM5, DM6 and DM7)}, RNA, were purchased from Sigma-Aldrich. ^1H and ^13C NMR spectra were recorded on a Bruker AV-400 MHz spectrometer with chemical shifts reported as parts per million (ppm) (in DMSO-d6, tetramethylsilane as an internal standard) at 20° C. UV-vis absorption and emission spectra were measured in quartz cuvettes of 1 cm path length. High resolution mass spectra (HRMS) were obtained on Agilent Technologies 6538 UHD Accurate-Mass Q-TOF LC/MS spectrometer. All biophysical studies (UV-vis, fluorescence and Cirular dichroism) are carried out at the concentration 0-5 μM of probe, volume=500 μL, temperature=25° C. and time of incubation=2 minutes. […]
(§2) The UV-vis absorption and emission spectra are recorded on Agilent Technologies Cary series UV-vis-NIR absorbance and Cary eclipse fluorescence spectrophotometers, respectively. […] Absorption is monitored at 260 nm with regular 5° C. intervals. Melting temperatures (Tm) of DNA samples are calculated from the first derivatives of the absorption vs. temperature curves (thermal denaturation or melting curves) obtained by monitoring at 260 nm. […]

d(ATAT)5 = assay: Switch-on NIR-fluorescence enhancement with DNA; type: binding
Description: as §1, §2

Drew-AT = assay: Binding constant from fluorescence titration; conditions: non-linear single-binding mode curve fitting
Description: (§3) To determine the binding stoichiometry of QCy-DT with Drew-AT, continuous variation method is employed, varying the ligand concentrations to generate the Job plot by fixing the total concentration of [QCy-DT+Drew-AT] at 2 μM. […] The binding constants of [QCy-DT+DNA] complexes are calculated from the fluorescence titration experiments using non-linear (single-binding mode) curve fitting analysis. […] Next, the fluorescence quantum yield of QCy-DT is estimated in the presence of AT- and GC-rich DNA duplexes (Table 3) as follows: […]

(D1)mix = assay: Binding constant from fluorescence titration; conditions: non-linear single-binding mode curve fitting
Description: as §3

(A-T)20 = assay: Binding constant from fluorescence titration
Description: as §3

DM2 (5′-ATTA-3′) = assay: Sequence-specific fluorescence enhancement, variable (A/T)4 core; type: binding; conditions: QCy-DT 2 μM, DM2 4 μM
Description: All the chemicals, reagents, single-stranded oligos (dA20, dT20, dG20, dC20), self-complementary oligos {d(ATAT)5, (D1)mix, Drew-AT, Calf-Thymus DNA (CT-DNA), (DM1, DM2, DM3, DM4, DM5, DM6 and DM7)}, RNA, were purchased from Sigma-Aldrich. ^1H and ^13C NMR spectra were recorded on a Bruker AV-400 MHz spectrometer with chemical shifts reported as parts per million (ppm) (in DMSO-d6, tetramethylsilane as an internal standard) at 20° C. UV-vis absorption and emission spectra were measured in quartz cuvettes of 1 cm path length. High resolution mass spectra (HRMS) were obtained on Agilent Technologies 6538 UHD Accurate-Mass Q-TOF LC/MS spectrometer. All biophysical studies (UV-vis, fluorescence and Cirular dichroism) are carried out at the concentration 0-5 μM of probe, volume=500 μL, temperature=25° C. and time of incubation=2 minutes. HeLa cells and MCF7 cells used in the biological studies are obtained from “Molecular reproduction, development and genetics lab, Indian institute of science, Bangalore, India”
Stock solutions of QCy-DT are prepared in double-distilled (dd) water in the order of 10^−3 M and stored at about −10° C. DNA stock solutions are prepared by dissolving oligo samples in double-distilled (dd) water in the order of 10^−4 M. Solutions of DNA duplexes are prepared in Tris-HCl (100 mM, pH=7.4) buffer solution by mixing complementary DNA strands in equimolar concentration. This solution is then subjected to annealing by heating up to about 85° C. for about 15 minutes, subsequently cooled to room temperature for about 7 hours and stored in the refrigerator (about 4° C.) for about 4 hours.
The UV-vis absorption and emission spectra are recorded on Agilent Technologies Cary series UV-vis-NIR absorbance and Cary eclipse fluorescence spectrophotometers, respectively. Thermal denaturation (UV-melting) studies are carried out on Cary 5000 UV-vis-NIR spectrophotometer equipped with Cary temperature controller in the range of 10° C. to 90° C. with a ramp rate of 1° C./min. The variable temperature/wavelength mode is used. Absorption is monitored at 260 nm with regular 5° C. intervals. Melting temperatures (Tm) of DNA samples are calculated from the first derivatives of the absorption vs. temperature curves (thermal denaturation or melting curves) obtained by monitoring at 260 nm.
Almost about ˜4-folds difference in fluorescence enhancement of QCy-DT in the presence of (A-T)20 compared to self-complementary, alternative AT-base pair containing d(ATAT)5 duplex is observed, although both contain total 20 AT base pairs (FIG. 3 and FIG. 12a). […] There are no NIR-fluorescence probes that sequence-specifically recognize the minor groove of AT-rich DNA. […] Further, QCy-DT detects all AT-rich sequences by showing varied fluorescence/sensitivity. […]

C[n+]1c(/C=C/c2ccc(O)c(/C=C/c3sc4ccccc4[n+]3C)c2)sc2ccccc21 [QCy-DT, quinone cyanine-dithiazole]
fluorescence response (RNA): very weak response | fluorescence enhancement (d(ATAT)5): ~54 fold | binding affinity Ka (Drew-AT): 1.5e+06 M⁻¹ | binding affinity Ka ((D1)mix): 430000 M⁻¹ | binding affinity Ka ((A-T)20; non-linear single-binding mode curve fitting): 2.9e+06 M⁻¹ | binding affinity for (A-T)20 higher than for Drew-AT ((A-T)20; ratio of Ka): 2 fold | fluorescence enhancement (DM2 (5′-ATTA-3′)): ~15 fold
